Results on 13 compounds are retold here after PubChem BioAssay (NCI).

Where “and” joins values, the source holds several entries; their conditions need not be identical. Identical values can stand only once.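 Method: 48-hour compound exposure of cells in 96-well plates, five concentrations, linear interpolation of endpoints. Abbreviation: GI50, concentration required for 50% inhibition of growth. At the TGI there is no net growth.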

Test in all cases: NCI tumour cell line growth inhibition, 48 h
The subject of test [1] is SK-OV-3 ovarian.
Test [2] has as its system COLO 205 colon.
The subject of test [3] is M14 melanoma.
In test [4] the test system is SK-MEL-5 melanoma.
In test [5] the test system is OVCAR-4 ovarian.
Test [6] deals with OVCAR-5 ovarian.
The test system of test [7] is TK-10 renal.
Test [8] has as its system NCI/ADR-RES ovarian.
Test [9] concerns HOP-62 NSCLC.
Test [10] deals with LOX IMVI melanoma.

Turning to `Cc1cc(C)c(N=Nc2c(O)c(S(=O)(=O)O)cc3cc(S(=O)(=O)O)ccc23)cc1C`, the TGI in test [1], in [2], in [3], in test [4], in [5] and in [6] was greater than 100 µM throughout. For the same compound, the TGI in [7], in [8], in test [9] and in [10] was greater than 100 µM in each case.
With `CCOP(=O)(OCC)C(Nc1ccc(F)cc1)c1ccccc1` (stereo not drawn), the TGI in test [1], in test [2], in test [3], in [4], in test [5] and in [6] was greater than 100 µM in each case. The TGI in test [7], in test [8], in test [9] and in test [10] was greater than 100 µM each time.
For `CC1(C)c2ccccc2C(O)C12CCC(=O)CC2` (stereo not drawn), the TGI in test [1], in test [2], in test [3], in test [4], in test [5] and in test [6] was greater than 100 µM each time. The TGI in [7], in test [8], in test [9] and in [10] was greater than 100 µM each time.
Regarding `CC(C)c1cccc(C(C)C)c1OS(=O)(=O)NC(=O)OC(C(F)(F)F)C(F)(F)F`, the TGI in [1] is greater than 100 µM; in [2], greater than 100 µM; in [3] it was 64 µM; in test [4] it was greater than 100 µM; in test [5], greater than 100 µM; in [6] it was greater than 100 µM. The TGI was greater than 100 µM in test [7], greater than 100 µM in test [8], 91.3 µM in [9] and greater than 100 µM in [10].
Turning to `C=CCC(CNC(=O)OCc1ccccc1)OC(=O)OCc1ccccc1` (stereo not drawn), the TGI is greater than 100 µM in test [1]; greater than 100 µM in test [2]; greater than 100 µM in test [3]; 56 µM in test [4]; greater than 100 µM in test [5]; greater than 100 µM in [6]. Also, the TGI in test [7], in test [8], in test [9] and in test [10] was greater than 100 µM each time.
For `Nc1ccc(-c2nc3ccccc3s2)cc1Br`, the TGI in test [1], in test [2], in test [3], in [4], in test [5] and in [6] was greater than 100 µM throughout. In addition, the TGI in test [7] was greater than 100 µM; in [8], greater than 100 µM; in test [9] it was greater than 68.3 µM; in test [10] it was greater than 100 µM.
For `CC1CC[C@@]2(OC1)OC1C[C@H]3[C@@H]4CCC5CC(O)CC[C@]5(C)[C@H]4C/C(=N\N(C)C)[C@]3(C)C1[C@@H]2C` (stereo partly drawn), the TGI in [1] was 47 µM; in [2], 45 µM; in test [3], greater than 100 µM; in test [4], 53.3 µM; in [5], greater than 100 µM; in [6] it was 62.2 µM. For the same compound, the TGI is 86.9 µM in [7], 41.4 µM in test [8], 54.7 µM in test [9] and greater than 100 µM in test [10].
In the case of `CC(=O)C1(O)Cc2c(O)c3c(c(O)c2C(OC2CC(N)C(O)C(C)O2)C1)C(=O)c1ccccc1C3=O` (stereo not drawn), the GI50 in test [1] is less than 0.0129 µM; in test [2], 0.0227 µM; in test [3] it was 0.0145 µM; in test [4] it was less than 0.0119 µM; in test [5] it was 0.0663 µM; in test [6], 0.0261 µM. The values for the GI50 in [9] and in test [10] were less than 0.0126 µM and 0.0214 µM, respectively. For the same compound, the TGI in test [1] was 0.788 µM and 0.129 µM; in [2], 0.803 µM and 0.181 µM; in [3], 0.605 µM and 0.158 µM; in [4], 0.33 µM and 0.0697 µM; in test [5], 0.996 µM; in test [6], 0.842 µM and 0.23 µM. Also, the TGI in test [7] was 0.158 µM; in [8], 4.88 µM; in test [9], 0.275 µM and 0.118 µM; in test [10], 0.243 µM and 0.0335 µM.
For `O=[N+]([O-])c1cc(Cl)ccc1S(=O)(=O)N1CCCc2cc(Cl)ccc21`, the TGI in [1], in test [2], in test [3], in [4], in test [5] and in test [6] was greater than 100 µM in each case. The TGI in test [7], in test [8], in test [9] and in [10] was greater than 100 µM each time.
`NC(N)=NCC(N)C(=O)O` (stereo not drawn): the TGI in test [1], in test [2], in [3], in test [4], in test [5] and in [6] was greater than 100 µM each time. The TGI in test [7], in test [8], in test [9] and in test [10] was greater than 100 µM each time.
Regarding `COc1ccc2c(c1)-c1[nH]c3ccccc3c1CC2`, the TGI in [1] came out at 33.6 µM; in test [2] it was 32.3 µM; in [3], 31.5 µM; in [4], 28.2 µM; in test [5], 32.4 µM; in [6] it was 29 µM. The TGI in [7] stood at 31.7 µM; in [8], 24.3 µM; in test [9] it was 30.8 µM; in test [10] it was 36.3 µM.
On to `CCCCNC(=S)Nc1nc(C(=O)NNC(=O)c2ccccc2)cs1`, for which the TGI in [1] is 35.3 µM; in test [2], 27.3 µM; in test [3], 28.6 µM; in test [4] it was 22.7 µM; in test [5], greater than 100 µM; in [6], 35 µM. The TGI in test [7] worked out at 60.6 µM; in test [8], 64.2 µM; in [9] it was 42.9 µM; in [10], 21.7 µM.
For `CCOC(=O)CC[C@H](N)C(=O)N[C@H](Cc1ccc(N(CCCl)CCCl)cc1)C(=O)OCC`, the TGI in test [1] was 11.7 µM; in test [2], 4.26 µM; in test [3], 12.9 µM; in test [4], greater than 100 µM; in [5], 11.2 µM; in test [6], 14.7 µM. For the same compound, the TGI is 8.51 µM in [7], 11.3 µM in test [8], 13.6 µM in test [9] and greater than 39.1 µM in test [10].
